Biological target: T1, hERG channel (Homo sapiens, UniProt Q12809)
T1 construct: gene KCNH2
Experiment: cell-based

T1 sequence (Q12809 whole entry): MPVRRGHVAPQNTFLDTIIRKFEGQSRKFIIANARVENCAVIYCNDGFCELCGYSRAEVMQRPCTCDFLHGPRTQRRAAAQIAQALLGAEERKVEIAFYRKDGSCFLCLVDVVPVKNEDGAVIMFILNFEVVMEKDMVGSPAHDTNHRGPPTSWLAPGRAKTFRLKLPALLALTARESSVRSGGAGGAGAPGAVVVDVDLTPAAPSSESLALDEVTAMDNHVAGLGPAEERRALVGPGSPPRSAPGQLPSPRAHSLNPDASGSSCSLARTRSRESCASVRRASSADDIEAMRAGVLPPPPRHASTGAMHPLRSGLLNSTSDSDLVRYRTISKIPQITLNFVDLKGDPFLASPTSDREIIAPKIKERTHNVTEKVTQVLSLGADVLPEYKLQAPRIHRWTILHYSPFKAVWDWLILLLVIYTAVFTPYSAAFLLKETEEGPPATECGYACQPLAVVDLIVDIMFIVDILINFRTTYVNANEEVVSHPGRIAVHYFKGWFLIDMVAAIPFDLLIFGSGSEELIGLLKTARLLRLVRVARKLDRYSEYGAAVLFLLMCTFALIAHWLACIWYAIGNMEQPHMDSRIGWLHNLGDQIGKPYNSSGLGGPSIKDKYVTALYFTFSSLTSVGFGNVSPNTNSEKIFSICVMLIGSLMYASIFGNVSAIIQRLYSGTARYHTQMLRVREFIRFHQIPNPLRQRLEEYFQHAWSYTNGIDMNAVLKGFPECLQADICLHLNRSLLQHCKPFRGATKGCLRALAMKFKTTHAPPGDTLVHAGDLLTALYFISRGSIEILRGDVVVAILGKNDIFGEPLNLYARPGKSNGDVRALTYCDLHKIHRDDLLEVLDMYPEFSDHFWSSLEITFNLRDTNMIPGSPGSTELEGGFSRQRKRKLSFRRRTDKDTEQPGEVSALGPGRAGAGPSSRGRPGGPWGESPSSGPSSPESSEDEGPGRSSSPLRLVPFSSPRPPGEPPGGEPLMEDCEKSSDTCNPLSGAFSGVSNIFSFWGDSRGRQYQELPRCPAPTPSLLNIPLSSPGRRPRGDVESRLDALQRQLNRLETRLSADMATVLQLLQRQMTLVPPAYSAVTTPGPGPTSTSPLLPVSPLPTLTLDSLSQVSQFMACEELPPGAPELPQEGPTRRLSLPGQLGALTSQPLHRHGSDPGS

## COc1c(-c2ccc3cc(NS(C)(=O)=O)ccc3c2)cc(-n2ccc(=O)[nH]c2=O)cc1C(C)(C)C [ABT-333]
  IC50: 3.2 µM
